Like-named read-outs stand apart in the source and are kept apart here. One block for each compound: values may come before it.
Assays:
[1] = Stability test for ubidecarenone and vitamins/minerals under co-existence, mixed 1:1; format: physicochemical; conditions: for effect of ingredient on stability of ubidecarenone: each ingredient singly mixed with ubidecarenone (Table 26); for % residual amount of ubidecarenone: mixed 1:1, 40±2° C., 75±5 RH %
[2] = Stability test for ubidecarenone according to content of 90% ascorbic acid; format: physicochemical; conditions: text summary of Table 28
Text: The results are as follows.

[3] = Stability test for ubidecarenone and vitamins/minerals under co-existence at typical formulation ratio; format: physicochemical; conditions: ubidecarenone 50 mg, accelerated stability test
[4] = cited from earlier work

SMILES: C[N+](C)(C)CCO.O=C([O-])C(O)C(O)C(=O)O (stereo not drawn) [choline bitartrate]
effect of ingredient on stability of ubidecarenone [1]: excessively reduce the stability of ubidecarenone

residual amount of ubidecarenone as content of ascorbic acid in sample tablet increases [2]: remarkably reduced
SMILES: O=C1O[C@H]([C@@H](O)CO)C(O)=C1O [ascorbic acid]

SMILES: C=C1CC[C@H](O)C/C1=C/C=C1\CCC[C@]2(C)[C@@H]([C@H](C)CCCC(C)C)CC[C@@H]12 [dried cholecalciferol]
effect of ingredient on stability of ubidecarenone [1]: excessively reduce the stability of ubidecarenone

SMILES: CCCCCCCCCCCCCCCC(=O)OC/C=C(C)/C=C/C=C(C)/C=C/C1=C(C)CCCC1(C)C [retinol palmitate]
effect of ingredient on stability of ubidecarenone [1]: excessively reduce the stability of ubidecarenone

SMILES: CC(=O)Oc1c(C)c(C)c2c(c1C)CCC(C)(CCC[C@H](C)CCC[C@H](C)CCCC(C)C)O2 (stereo partly drawn) [alpha-tocopherol acetate]
effect of ingredient on stability of ubidecarenone [1]: excessively reduce the stability of ubidecarenone

residual amount of ubidecarenone, 2 weeks (%) ([3]; 2 weeks): 99.2%
residual amount of ubidecarenone, Initial (%) ([3]; initial): 100%
% residual amount of ubidecarenone ([1]; 2 weeks): 99.2%
% residual amount of ubidecarenone ([1]; initial (regarded as 100.0%)): 100%
SMILES: COC1=C(OC)C(=O)C(C/C=C(\C)CC/C=C(\C)CC/C=C(\C)CC/C=C(\C)CC/C=C(\C)CC/C=C(\C)CC/C=C(\C)CC/C=C(\C)CC/C=C(\C)CCC=C(C)C)=C(C)C1=O [Ubidecarenone]
solubility ([4]; in alcohol): insoluble
solubility ([4]; in ether): highly soluble
solubility ([4]; in water): insoluble

From patent publication US20100203126A1 (priority 2007, published 2010)
